{"source": "patent US20170000715A1", "about": "“PEGYLATED 7-DEHYDROCHOLESTEROL DERIVATIVES” (HUMEDIX CO., LTD., priority 2014, published 2017)", "experiment": "Solubility test (saturated aqueous solution in distilled water, gravimetric)", "type": "physicochemical", "conditions": "room temperature, calculated according to Equation 1", "protocol": "Each of compounds of Examples 1 and 5 and 7-dehydrocholesterol as a comparative material was dissolved in an amount of 100 mg in 100 ml of distilled water, followed by stirring at room temperature for 1 hour. The procedure was repeated until each compound was saturated and those being not dissolved were filtered, to prepare each saturated aqueous solution.\nThen, the saturated aqueous solution was put into a weighed empty container (A), followed by weighing (B). Then, the saturated aqueous solution in the container was concentrated in reduced pressure and dried under vacuum, followed by weighing (C). The solubility of each solution was calculated according to the following Equation 1, and the results thereof are shown in Table 2.", "data": [{"smiles": "CC(C)CCC[C@@H](C)[C@H]1CC[C@H]2C3=CC=C4C[C@@H](O)CC[C@]4(C)[C@H]3CC[C@]12C", "note": "[7-Dehydrocholesterol, 7-dehydrocholesterol]", "values": [{"measurement": "Solubility", "result": "Insoluble"}]}]}
